This is an account of results in patent US10689354B2, “Aminoazole derivative” (Teijin Pharma Limited, priority 2015, dated 2020).

Bounds are passed on as bounds.

The target in experiment [1] is T1, human androgen receptor (Homo sapiens, UniProt P10275).
T1 construct: expressed in transfected cells; host or cells: HEK293
T1 sequence (P10275 1-920): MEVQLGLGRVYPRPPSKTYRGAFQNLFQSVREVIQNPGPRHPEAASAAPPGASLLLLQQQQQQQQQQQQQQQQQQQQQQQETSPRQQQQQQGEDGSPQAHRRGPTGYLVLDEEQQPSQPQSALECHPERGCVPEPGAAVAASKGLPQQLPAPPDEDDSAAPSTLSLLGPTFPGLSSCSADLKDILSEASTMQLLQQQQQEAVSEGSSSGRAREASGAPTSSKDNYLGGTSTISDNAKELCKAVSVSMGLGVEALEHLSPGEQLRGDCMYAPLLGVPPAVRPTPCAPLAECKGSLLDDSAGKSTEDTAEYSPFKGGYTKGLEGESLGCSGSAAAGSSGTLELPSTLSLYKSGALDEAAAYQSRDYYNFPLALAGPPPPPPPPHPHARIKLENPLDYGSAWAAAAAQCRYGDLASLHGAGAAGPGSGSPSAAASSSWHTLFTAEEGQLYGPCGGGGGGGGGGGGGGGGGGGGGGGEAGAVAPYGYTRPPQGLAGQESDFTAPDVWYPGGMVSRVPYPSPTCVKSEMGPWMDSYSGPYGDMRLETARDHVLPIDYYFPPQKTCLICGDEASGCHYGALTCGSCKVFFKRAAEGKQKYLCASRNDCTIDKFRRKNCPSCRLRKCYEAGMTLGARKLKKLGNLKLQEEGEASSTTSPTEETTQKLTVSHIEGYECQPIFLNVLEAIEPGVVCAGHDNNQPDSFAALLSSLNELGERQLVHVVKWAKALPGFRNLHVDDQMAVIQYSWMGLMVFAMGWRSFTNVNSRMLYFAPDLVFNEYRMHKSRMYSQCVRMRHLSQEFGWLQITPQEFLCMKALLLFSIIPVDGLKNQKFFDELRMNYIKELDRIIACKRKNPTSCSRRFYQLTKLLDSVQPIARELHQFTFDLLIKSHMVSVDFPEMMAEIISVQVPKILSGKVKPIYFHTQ
Briefly: Reporter assay of an androgen receptor responsive sequence (luciferase, transiently transfected HEK293 cells). The following applies: 24 hours incubation, relative to activity of 100 nM DHT, read-out: AR transcriptive activity (pEC50) (converted). The class given is cell-based. In short, it runs like this: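 Agonism scored as pEC50, fitted by 4-parameter curve against the response to 100 nM DHT, from dual-luciferase readout after 24 h compound treatment. Cells were HEK293 co-transfected (3 h) with human AR expression vector, androgen-responsive firefly reporter and Renilla control, in charcoal-stripped serum.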

Experiment [2] concerns the target T2, androgen receptor (AR-LBD) (Rattus norvegicus, UniProt P15207).
T2 construct: 5 μL of 2×AR-LBD/Fluoromone AL Red Complex contained in the kit; purchased Invitrogen
T2 sequence (P15207 651-882 limits assumed): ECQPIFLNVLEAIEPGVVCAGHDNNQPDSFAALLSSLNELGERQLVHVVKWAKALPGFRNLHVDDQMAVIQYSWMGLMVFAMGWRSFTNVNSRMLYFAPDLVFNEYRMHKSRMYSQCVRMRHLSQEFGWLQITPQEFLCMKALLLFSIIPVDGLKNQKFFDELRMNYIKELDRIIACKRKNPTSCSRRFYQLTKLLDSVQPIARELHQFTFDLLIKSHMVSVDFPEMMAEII
Briefly: Evaluation of androgen receptor affinity (PolarScreen Androgen Receptor Competitor Assay Kit, Red; fluorescence polarization). The following applies: 22° C. for 5 hours, relative to binding rate of 1 μM DHT, read-out: AR affinity (pEC50) (converted). In short, it runs like this: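 Duplicate wells of test compound were mixed with the kit's rat AR-LBD–Fluoromone AL Red tracer complex and left 5 hours at 22 °C before polarization was read. A 4-parameter fit gave pEC50, with binding rate referenced to 1 μM dihydrotestosterone.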
(In general: Polarisation of emitted light reports the rotation of a fluorescent probe.)

Consider `Cc1sc(N(CCc2ccc(Cl)cc2)Cc2ccc(OC(F)(F)F)cc2)nc1C(=O)NS(=O)(=O)C1CC1` [Compound 702, 2-[2-(4-chlorophenyl)ethyl-[[4-(trifluoromethoxy)phenyl]methyl]amino]-N-cyclopropylsulfonyl-5-methyl-thiazole-4-carboxamide], for which the EC50 is above 10000 nM in experiment [1] and 200 nM in experiment [2].

Take `Cc1sc(N(CCc2ccc(Cl)cc2)Cc2ccc(OC(F)(F)F)cc2)nc1C(=O)NS(=O)(=O)Cc1cccnc1` [Compound 703, 2-[2-(4-chlorophenyl)ethyl-[[4-(trifluoromethoxy)phenyl]methyl]amino]-5-methyl-N-(3-pyridylmethylsulfonyl)thiazole-4-carboxamide]: the EC50 in experiment [1] is 158 nM; in experiment [2] it was 31.6 nM.

Take `Cc1sc(N(CCc2ccc(Cl)cc2)Cc2ccc(OC(F)(F)F)cc2)nc1C(=O)NS(=O)(=O)C(F)(F)F` [Compound 704, 2-[2-(4-chlorophenyl)ethyl-[[4-(trifluoromethoxy)phenyl]methyl]amino]-5-methyl-N-(trifluoromethylsulfonyl)thiazole-4-carboxamide]: the EC50 in experiment [1] is above 10000 nM; in experiment [2], 316 nM.

For `Cc1sc(N(CCc2ccc3c(c2)OCO3)Cc2ccccc2)nc1C(=O)NS(C)(=O)=O` [Compound 708, 2-[2-(1,3-benzodioxol-5-yl)ethyl-benzyl-amino]-5-methyl-N-methylsulfonyl-thiazole-4-carboxamide], the EC50 is 501 nM in experiment [1] and 79.4 nM in experiment [2].

For `Cc1sc(N(CCn2cc(Cl)cn2)Cc2ccccc2)nc1C(=O)NS(C)(=O)=O` [Compound 709, 2-[benzyl-[2-(4-chloropyrazol-1-yl)ethyl]amino]-5-methyl-N-methylsulfonyl-thiazole-4-carboxamide], the EC50 was 631 nM in experiment [1] and 200 nM in experiment [2].

With `Cc1sc(N(CCc2ccc(Cl)c(Cl)c2)Cc2ccccc2)nc1C(=O)NS(C)(=O)=O` [Compound 710, 2-[benzyl-[2-(3,4-dichlorophenyl)ethyl]amino]-5-methyl-N-methylsulfonyl-thiazole-4-carboxamide], the EC50 in experiment [1] was 398 nM; in experiment [2] it was 50.1 nM.

For the molecule `CCS(=O)(=O)NC(=O)c1nc(N(CCc2ccc(C#N)cc2)Cc2ccc(Cl)cc2)sc1C` [Compound 713, 2-[(4-chlorophenyl)methyl-[2-(4-cyanophenyl)ethyl]amino]-N-ethylsulfonyl-5-methyl-thiazole-4-carboxamide], the results for the EC50 in experiment [1] and in experiment [2] were 251 nM and 31.6 nM, respectively.

Take `Cc1sc(N(CCc2ccc(C#N)cc2)Cc2ccc(Cl)cc2)nc1C(=O)NS(=O)(=O)C1CC1` [Compound 714, 2-[(4-chlorophenyl)methyl-[2-(4-cyanophenyl)ethyl]amino]-N-cyclopropylsulfonyl-5-methyl-thiazole-4-carboxamide]: the EC50 is 1260 nM in experiment [1] and 79.4 nM in experiment [2].

For `Cc1sc(N(CCc2ccc(C#N)cc2)Cc2ccc(Cl)cc2)nc1C(=O)NS(=O)(=O)C(F)(F)F` [Compound 715, 2-[(4-chlorophenyl)methyl-[2-(4-cyanophenyl)ethyl]amino]-5-methyl-N-(trifluoromethylsulfonyl)thiazole-4-carboxamide], the results for the EC50 in experiment [1] and in experiment [2] were 2510 nM and 126 nM, respectively.

With `Cc1sc(N(CCc2ccc(C#N)cc2)CC2CCCCC2)nc1C(=O)NS(C)(=O)=O` [Compound 716, 2-[2-(4-cyanophenyl)ethyl-(cyclohexylmethyl)amino]-5-methyl-N-methylsulfonyl-thiazole-4-carboxamide], the values for the EC50 in experiment [1] and in experiment [2] were above 10000 nM and 631 nM, respectively.

In the case of `CCS(=O)(=O)NC(=O)c1nc(N(CCc2ccc(C#N)cc2)CC2CCCCC2)sc1C` [Compound 717, 2-[2-(4-cyanophenyl)ethyl-(cyclohexylmethyl)amino]-N-ethylsulfonyl-5-methyl-thiazole-4-carboxamide], the EC50 is above 10000 nM in experiment [1] and 1000 nM in experiment [2].

As to `Cc1sc(N(CCc2ccc(C#N)cc2)Cc2ccc(OC(F)(F)F)cc2)nc1C(=O)NS(=O)(=O)C1CC1` [Compound 721, 2-[2-(4-cyanophenyl)ethyl-[[4-(trifluoromethoxy)phenyl]methyl]amino]-N-cyclopropylsulfonyl-5-methyl-thiazole-4-carboxamide], the EC50 was above 10000 nM in experiment [1] and 158 nM in experiment [2].

Consider `Cc1sc(N(CCc2ccc(C#N)cc2)Cc2ccc(OC(F)(F)F)cc2)nc1C(=O)NS(=O)(=O)C(F)(F)F` [Compound 722, 2-[2-(4-cyanophenyl)ethyl-[[4-(trifluoromethoxy)phenyl]methyl]amino]-5-methyl-N-(trifluoromethylsulfonyl)thiazole-4-carboxamide], for which the EC50 was above 10000 nM in experiment [1] and 251 nM in experiment [2].

For `Cc1sc(N(CCC2CCCCC2)Cc2ccc(Cl)cc2)nc1C(=O)NS(=O)(=O)C(F)(F)F` [Compound 723, 2-[(4-chlorophenyl)methyl-(2-cyclohexylethyl)amino]-5-methyl-N-(trifluoromethylsulfonyl)thiazole-4-carboxamide], the values for the EC50 in experiment [1] and in experiment [2] were above 10000 nM and 501 nM, respectively.

For `Cc1sc(N(CCC2CCCCC2)Cc2ccc(OC(F)(F)F)cc2)nc1C(=O)NS(=O)(=O)C(F)(F)F` [Compound 724, 2-[2-cyclohexylethyl-[[4-(trifluoromethoxy)phenyl]methyl]amino]-5-methyl-N-(trifluoromethylsulfonyl)thiazole-4-carboxamide], the EC50 is above 10000 nM in experiment [1] and 501 nM in experiment [2].

On to `Cc1sc(N(CCc2ccc(C#N)cc2)CC2CCCCC2)nc1C(=O)NS(=O)(=O)Cc1cccnc1` [Compound 725, 2-[2-(4-cyanophenyl)ethyl-(cyclohexylmethyl)amino]-5-methyl-N-(3-pyridylmethylsulfonyl)thiazole-4-carboxamide], for which the EC50 in experiment [1] was above 10000 nM; in experiment [2] it was 100 nM.

For `CCS(=O)(=O)NC(=O)c1nc(N(CCc2ccc(C#N)cc2)Cc2ccc(OC(F)(F)F)cc2)sc1C` [Compound 726, 2-[2-(4-cyanophenyl)ethyl-[[4-(trifluoromethoxy)phenyl]methyl]amino]-N-ethylsulfonyl-5-methyl-thiazole-4-carboxamide], the EC50 in experiment [1] is 1000 nM; in experiment [2] it was 31.6 nM.

In the case of `Cc1sc(N(CCc2ccc(C#N)cc2)Cc2ccc(OC(F)(F)F)cc2)nc1C(=O)NS(=O)(=O)Cc1cccc(F)c1` [Compound 727, 2-[2-(4-cyanophenyl)ethyl-[[4-(trifluoromethoxy)phenyl]methyl]amino]-N-[(3-fluorophenyl)methylsulfonyl]-5-methyl-thiazole-4-carboxamide], the EC50 was above 10000 nM in experiment [1] and 200 nM in experiment [2].

Turning to `Cc1sc(N(CCC2CCCCC2)Cc2ccc(Cl)cc2)nc1C(=O)NS(C)(=O)=O` [Compound 728, 2-[(4-chlorophenyl)methyl-(2-cyclohexylethyl)amino]-5-methyl-N-methylsulfonyl-thiazole-4-carboxamide], the figures for the EC50 in experiment [1] and in experiment [2] were 631 nM and 39.8 nM, respectively.

With `CCS(=O)(=O)NC(=O)c1nc(N(CCC2CCCCC2)Cc2ccc(Cl)cc2)sc1C` [Compound 729, 2-[(4-chlorophenyl)methyl-(2-cyclohexylethyl)amino]-N-ethylsulfonyl-5-methyl-thiazole-4-carboxamide], the values for the EC50 in experiment [1] and in experiment [2] were 5010 nM and 126 nM, respectively.
